# Earlier results, collected in patent US20020160947A1, “Synergistic method for prolonging allograft survival” (Millennium Pharmaceuticals, Inc., priority 2001, published 2002).
# System: activated T-cells
# Details: activated versus resting T cells
compound,measurement,value
CC(=O)N[C@@H](CSC(=O)[C@]1([C@@H](O)C(C)C)NC(=O)[C@H](C)[C@@H]1O)C(=O)O [lactacystin],induction of apoptosis of T cells,"induction of apoptosis of activated T-cells, but not resting T cells"
